Results as given in ChEMBL document CHEMBL4371049, “Semi-synthesis and anti-tumor activity of novel 25-OCH3-PPD derivatives incorporating aromatic moiety” (Bioorg Med Chem Lett, 2019).

What was measured:
Assay type in all cases: functional, cell-based
[1] = test system: BGC-823; assay: Antiproliferative activity against human BGC823 cells after 48 hrs by MTT assay; details: BGC-823, 48 h
[2] = test system: HepG2; assay: Antiproliferative activity against human HepG2 cells after 48 hrs by MTT assay; details: HepG2, 48 h
[3] = test system: PC-3; assay: Antiproliferative activity against human PC3 cells after 48 hrs by MTT assay; details: PC-3, 48 h
[4] = test system: MCF7; assay: Antiproliferative activity against human MCF7 cells after 48 hrs by MTT assay; details: MCF7, 48 h
[5] = test system: DU-145; assay: Antiproliferative activity against human DU145 cells after 48 hrs by MTT assay; details: DU-145, 48 h

IC50 [1] [µM]	IC50 [2] [µM]	IC50 [3] [µM]	IC50 [4] [µM]	IC50 [5] [µM]	Structure (SMILES)
> 50	41.5	> 50	36.4	> 50	COC(C)(C)CCC[C@@](C)(O)[C@H]1CC[C@]2(C)[C@@H]1[C@H](OC(=O)c1ccc(Cl)cc1)C[C@@H]1[C@@]3(C)CC[C@H](OC(=O)c4ccc(Cl)cc4)C(C)(C)[C@@H]3CC[C@]12C
> 50	> 50	> 50	> 50	> 50	COC(C)(C)CCC[C@@](C)(O)[C@H]1CC[C@]2(C)[C@@H]1[C@H](OC(=O)/C=C/c1ccccc1)C[C@@H]1[C@@]3(C)CC[C@H](OC(=O)/C=C/c4ccccc4)C(C)(C)[C@@H]3CC[C@]12C
34.4	18.9	39.9	15.6	28.7	COC(C)(C)CCC[C@@](C)(O)[C@H]1CC[C@]2(C)[C@@H]1[C@H](O)C[C@@H]1[C@@]3(C)CC[C@H](OC(=O)c4cc(F)ccc4Br)C(C)(C)[C@@H]3CC[C@]12C
> 50	28.8	> 50	29.4	30.7	COC(C)(C)CCC[C@@](C)(O)[C@H]1CC[C@]2(C)[C@@H]1[C@H](O)C[C@@H]1[C@@]3(C)CC[C@H](OC(=O)c4cc(I)ccc4Cl)C(C)(C)[C@@H]3CC[C@]12C
28.7	26.4	37.2	35	40.1	COC(C)(C)CCC[C@@](C)(O)[C@H]1CC[C@]2(C)[C@@H]1[C@H](O)C[C@@H]1[C@@]3(C)CC[C@H](OC(=O)/C=C/c4ccccc4)C(C)(C)[C@@H]3CC[C@]12C
17.4	20.6	16.7	25.3	19.2	COC(C)(C)CCC[C@@](C)(O)[C@H]1CC[C@]2(C)[C@@H]1[C@H](O)C[C@@H]1[C@@]3(C)CC[C@H](OC(=O)c4ccc([N+](=O)[O-])cc4)C(C)(C)[C@@H]3CC[C@]12C
28.1	19.2	22	15.6	18.5	COC(C)(C)CCC[C@@](C)(O)[C@H]1CC[C@]2(C)[C@@H]1[C@H](O)C[C@@H]1[C@@]3(C)CC[C@H](OC(=O)c4ccccc4Cl)C(C)(C)[C@@H]3CC[C@]12C
7.1	5.8	11.4	4.3	6.7	COC(C)(C)CCC[C@@](C)(O)[C@H]1CC[C@]2(C)[C@@H]1[C@H](O)C[C@@H]1[C@@]3(C)CC[C@H](OC(=O)c4ccc(F)cc4F)C(C)(C)[C@@H]3CC[C@]12C
> 50	> 50	> 50	> 50	> 50	COC(C)(C)CCC[C@@](C)(O)[C@H]1CC[C@]2(C)[C@@H]1[C@H](OC(=O)c1ccccc1)C[C@@H]1[C@@]3(C)CC[C@H](OC(=O)c4ccccc4)C(C)(C)[C@@H]3CC[C@]12C
> 50	> 50	> 50	> 50	> 50	COC(C)(C)CCC[C@@](C)(O)[C@H]1CC[C@]2(C)[C@@H]1[C@H](OC(=O)c1ccccc1)C[C@@H]1[C@@]3(C)CC[C@H](O)C(C)(C)[C@@H]3CC[C@]12C
48.6	> 50	> 50	37.2	29.7	COC(C)(C)CCC[C@@](C)(O)[C@H]1CC[C@]2(C)[C@@H]1[C@H](OC(=O)c1ccccc1[N+](=O)[O-])C[C@@H]1[C@@]3(C)CC[C@H](OC(=O)c4ccccc4[N+](=O)[O-])C(C)(C)[C@@H]3CC[C@]12C
> 50	41.8	> 50	> 50	34.6	COC(C)(C)CCC[C@@](C)(O)[C@H]1CC[C@]2(C)[C@@H]1[C@H](OC(=O)/C=C/c1ccc(F)cc1)C[C@@H]1[C@@]3(C)CC[C@H](OC(=O)/C=C/c4ccc(F)cc4)C(C)(C)[C@@H]3CC[C@]12C
5.3	10.3	13.5	6.4	8.6	COC(C)(C)CCC[C@@](C)(O)[C@H]1CC[C@]2(C)[C@@H]1[C@H](O)C[C@@H]1[C@@]3(C)CC[C@H](OC(=O)c4cccc(F)c4)C(C)(C)[C@@H]3CC[C@]12C
> 50	> 50	> 50	> 50	> 50	COC(C)(C)CCC[C@@](C)(O)[C@H]1CC[C@]2(C)[C@@H]1[C@H](OC(=O)c1ccc(I)cc1)C[C@@H]1[C@@]3(C)CC[C@H](O)C(C)(C)[C@@H]3CC[C@]12C
> 50	> 50	> 50	> 50	> 50	COC(C)(C)CCC[C@@](C)(O)[C@H]1CC[C@]2(C)[C@@H]1[C@H](OC(=O)/C=C/c1ccccc1)C[C@@H]1[C@@]3(C)CC[C@H](O)C(C)(C)[C@@H]3CC[C@]12C
> 50	> 50	> 50	> 50	> 50	COC(C)(C)CCC[C@@](C)(O)[C@H]1CC[C@]2(C)[C@@H]1[C@H](OC(=O)c1ccc([N+](=O)[O-])cc1)C[C@@H]1[C@@]3(C)CC[C@H](OC(=O)c4ccc([N+](=O)[O-])cc4)C(C)(C)[C@@H]3CC[C@]12C
> 50	> 50	> 50	46.3	31.8	COC(C)(C)CCC[C@@](C)(O)[C@H]1CC[C@]2(C)[C@@H]1[C@H](O)C[C@@H]1[C@@]3(C)CC[C@H](OC(=O)c4ccc(I)cc4)C(C)(C)[C@@H]3CC[C@]12C
